Data: patent publication US10106783B2, “HCV culture systems and direct-acting antiviral sensitivity” (Hvidovre Hospital, priority 2013, dated 2018)

Key:
[1] = system: J6/JFH1 (HCV genotype 2a recombinant); assay: High-throughput DAA treatment assay of infected Huh7.5 cells, J6/JFH1 virus; assay type: cell-based; conditions: Hepatitis C virus, first-passage 2a J6/JFH1 stock, read-out: EC50 against J6/JFH1
Description: (§1) Huh7.5 cells in 96-well culture plates were infected with 5′UTR-NS5A specific genotype(isolate) recombinants. For details on the 5-5A virus stocks see FIG. 3. J6/JFH1 was a first-passage stock with no mutations in the ORF. Cultures were treated with seven protease inhibitors and the NS5A inhibitor daclatasvir. Values are means of triplicates in the experiment with ±SEM.
(§2) HCV DAAs were purchased from Acme Bioscience and dissolved in dimethyl sulfoxide (Sigma). High throughput treatment assays have been previously established. Concentration-response curves, EC50 values, and 95% confidence interval were calculated in GraphPad Prism 5 as described. Cytotoxicity assays to determine the non-cytotoxic dose range of the anti-HCV drugs were performed.
(§3) Since no mutations appeared in the NS3 protease region in first-passage 5-5A recombinants, these culture viruses could be ideal models for studying the efficacy of PIs in a genotype-specific manner. We thus generated virus stocks from first-passage 1a(H77 and TN) and second-passage 3a(S52), 4a(ED43), 5a(SA13), and 6a(HK6a) 5-5A viruses (FIG. 3) for PI treatment experiments. Additionally, we generated a first-passage stock of 2a J6/JFH1. We confirmed that virus stocks used for treatment were without NS3 protease mutations (FIGS. 5-9). We tested virus sensitivity to the most advanced PIs: telaprevir (VX-950), boceprevir (SCH503034), asunaprevir (BMS-650032), simeprevir (TMC435350), vaniprevir (MK-7009), faldaprevir (BI201335), and MK-5172. […] The median effective concentration (EC50) representing the efficacy of drugs against the treated viruses was calculated from the concentration-response curves (FIGS. 2, 4 and 10). For a given inhibitor, EC50 fold-differences relative to J6/JFH1 were calculated for each genotype recombinant and used to describe whether a recombinant was more sensitive (fold-difference <1) or resistant (fold-difference >1) than J6/JFH1.

[2] = system: 4a(ED43) 5'UTR-NS5A recombinant virus; assay: High-throughput DAA treatment assay of infected Huh7.5 cells, 4a(ED43)5-5A virus; assay type: cell-based, hepatitis C virus; conditions: for EC50 fold-difference relative to J6/JFH1, more resistant: 4a(ED43)5-5A virus more resistant than J6/JFH1; for EC50 fold-difference relative to J6/JFH1, more sensitive: 4a(ED43)5-5A virus more sensitive than J6/JFH1
Description: as §1, §2, §3

[3] = system: 6a(HK6a) 5'UTR-NS5A recombinant virus; assay: High-throughput DAA treatment assay of infected Huh7.5 cells, 6a(HK6a)5-5A virus; assay type: cell-based, hepatitis C virus; conditions: for EC50 fold-difference relative to J6/JFH1, more sensitive: 6a(HK6a)5-5A virus more sensitive than J6/JFH1; for EC50 fold-difference from J6/JFH1: 6a(HK6a)5-5A virus, difference in sensitivity compared to J6/JFH1
Description: as §1, §2, §3

[4] = system: 3a(S52) 5'UTR-NS5A recombinant virus; assay: High-throughput DAA treatment assay of infected Huh7.5 cells, 3a(S52)5-5A virus; assay type: cell-based, hepatitis C virus; conditions: 3a(S52)5-5A virus more resistant (less sensitive) than J6/JFH1
Description: as §1, §2, §3

[5] = system: 1a(TN) 5'UTR-NS5A recombinant virus; assay: High-throughput DAA treatment assay of infected Huh7.5 cells, 1a(TN)5-5A virus; assay type: cell-based, hepatitis C virus; conditions: for EC50 fold-difference from J6/JFH1: 1a(TN)5-5A virus, difference in sensitivity compared to J6/JFH1; for EC50 fold-difference relative to J6/JFH1, more sensitive: 1a(TN)5-5A virus more sensitive than J6/JFH1
Description: as §1, §2, §3

[6] = system: HCV genotype 1-6 recombinant viruses; assay: High-throughput DAA treatment assay of infected Huh7.5 cells, whole panel of genotype 1-6 recombinant viruses; assay type: cell-based, hepatitis C virus; conditions: for Inhibition of genotype 1-6 recombinant viruses: infected Huh7.5 cells, concentration-response
Description: as §1, §2, §3

[7] = system: 1a(H77) 5'UTR-NS5A recombinant virus; assay: High-throughput DAA treatment assay of infected Huh7.5 cells, 1a(H77)5-5A virus; assay type: cell-based, hepatitis C virus; conditions: for EC50 fold-difference from J6/JFH1: 1a(H77)5-5A virus, difference in sensitivity compared to J6/JFH1; for EC50 fold-difference relative to J6/JFH1, more sensitive: 1a(H77)5-5A virus more sensitive than J6/JFH1
Description: as §1, §2, §3

[8] = system: 5a(SA13) 5'UTR-NS5A recombinant virus; assay: High-throughput DAA treatment assay of infected Huh7.5 cells, 5a(SA13)5-5A virus; assay type: cell-based, hepatitis C virus; conditions: for EC50 fold-difference from J6/JFH1: 5a(SA13)5-5A virus, difference in sensitivity compared to J6/JFH1; for EC50 fold-difference relative to J6/JFH1, more sensitive: 5a(SA13)5-5A virus more sensitive than J6/JFH1
Description: as §1, §2, §3

| Structure (SMILES) | EC50 [1] | EC50 fold-difference relative to J6/JFH1, more resistant [2] | EC50 fold-difference relative to J6/JFH1, more sensitive [3] | EC50 fold-difference relative to J6/JFH1, more resistant [4] | EC50 fold-difference from J6/JFH1 [5] | Potency relative to the other tested DAAs ([6]; all genotype recombinant viruses) | Inhibition of genotype 1-6 recombinant viruses [6] | EC50 fold-difference from J6/JFH1 [7] | EC50 fold-difference from J6/JFH1 ([2]; 4a(ED43)5-5A virus, difference in sensitivity compared to J6/JFH1) | EC50 fold-difference from J6/JFH1 [8] | EC50 fold-difference from J6/JFH1 [3] | EC50 fold-difference relative to J6/JFH1, more sensitive [5] | EC50 fold-difference relative to J6/JFH1, more sensitive [7] | EC50 fold-difference relative to J6/JFH1, more sensitive [2] | EC50 fold-difference relative to J6/JFH1, more sensitive [8] |
| --- | --- | --- | --- | --- | --- | --- | --- | --- | --- | --- | --- | --- | --- | --- | --- |
| CC(C)(C)NC(=O)N[C@H](C(=O)N1C[C@H]2[C@@H]([C@H]1C(=O)NC(CC1CCC1)C(=O)C(N)=O)C2(C)C)C(C)(C)C (some centres unmarked) [boceprevir] | 589 nM | ~2 fold | ~4 fold | ~2 fold |  |  |  |  |  |  |  |  |  |  |  |
| C=C[C@@H]1C[C@]1(NC(=O)[C@@H]1C[C@@H]2CN1C(=O)[C@H](C(C)(C)C)NC(=O)O[C@@H]1C[C@H]1CCCCCc1nc3ccc(OC)cc3nc1O2)C(=O)NS(=O)(=O)C1CC1 [MK-5172] |  |  |  | ~13 fold | less than 2 fold | the most potent PI with broad activity against HCV genotypes 1-6 | concentration-dependently inhibited | less than 2 fold | less than 2 fold | less than 2 fold | less than 2 fold |  |  |  |  |
| C=C[C@@H]1C[C@]1(NC(=O)[C@@H]1C[C@@H](Oc2ncc(OC)c3ccc(Cl)cc23)CN1C(=O)[C@@H](NC(=O)OC(C)(C)C)C(C)(C)C)C(=O)NS(=O)(=O)C1CC1 [asunaprevir] | 159 nM |  | 2-3 fold | ~13 fold |  |  | concentration-dependently inhibited |  |  |  |  | 2-3 fold | ~5 fold | ~5 fold | 2-3 fold |
| COc1ccc2c(O[C@@H]3C[C@H]4C(=O)N[C@]5(C(=O)NS(=O)(=O)C6CC6)C[C@H]5/C=C\CCCCN(C)C(=O)[C@@H]4C3)cc(-c3nc(C(C)C)cs3)nc2c1C [simeprevir] | 91 nM |  |  | ~27 fold | less than 2 fold |  | concentration-dependently inhibited |  |  | less than 2 fold | less than 2 fold |  | ~10 fold | ~10 fold |  |
| CCC[C@H](NC(=O)[C@@H]1[C@H]2CCC[C@H]2CN1C(=O)[C@@H](NC(=O)[C@@H](NC(=O)c1cnccn1)C1CCCCC1)C(C)(C)C)C(=O)C(=O)NC1CC1 [telaprevir] | 493 nM | ~4 fold | ~4 fold | ~4 fold |  |  |  |  |  |  |  |  |  |  |  |
| C=C[C@@H]1C[C@]1(NC(=O)[C@@H]1C[C@@H](Oc2cc(-c3csc(NC(=O)C(C)C)n3)nc3c(Br)c(OC)ccc23)CN1C(=O)[C@@H](NC(=O)OC1CCCC1)C(C)(C)C)C(=O)O [faldaprevir] |  |  | ~4 fold | ~17 fold |  |  | concentration-dependently inhibited |  |  |  |  | ~4 fold | ~12 fold | ~44 fold | ~10 fold |
| COC(=O)N[C@H](C(=O)N1CCC[C@H]1c1nc(-c2ccc(-c3ccc(-c4c[nH]c([C@@H]5CCCN5C(=O)[C@@H](NC(=O)OC)C(C)C)n4)cc3)cc2)c[nH]1)C(C)C [daclatasvir] |  |  |  | ~6 fold | < 3 fold |  |  | < 3 fold |  | < 3 fold | < 3 fold |  |  | ~5 fold |  |
| CC[C@@H]1C[C@]1(NC(=O)[C@@H]1C[C@@H]2CN1C(=O)[C@H](C(C)(C)C)NC(=O)OCC(C)(C)CCCCc1cccc3c1CN(C3)C(=O)O2)C(=O)NS(=O)(=O)C1CC1 [vaniprevir] | 88 nM |  | 3-6 fold | ~22 fold |  |  | concentration-dependently inhibited |  |  |  |  | 3-6 fold | 3-6 fold | ~10 fold | 3-6 fold |
